Data set [1] in a line: Posaconazole solubility in acidified Captisol solutions. The class given is physicochemical. The conditions noted are these: for solubility: acidified Captisol solution. On the procedure:
In an effort to evaluate the range of posaconazole solubilities that could be achieved at feasible pH's, a series of solutions was prepared with a fixed Captisol® concentration. Utilizing an acidic solution of 20% Captisol® (w/v), the solubility of posaconazole was increased more than 1000 times and it was determined that a target concentration of 5 mg/mL could be achieved.
Posaconazole solubility was also evaluated in acidified solutions with different Captisol® concentrations. […] Therefore, at some pH values, as the Captisol® concentration increases, the ratio of Captisol® to solubilized posaconazole will decrease. Based on this solubility effect, a formulation could be developed whereby for the same posaconazole daily dosage, the daily dose of Captisol® could be decreased.
Hydrochloric acid was used as an acidifier in the posaconazole formulation. However, several additional acidifiers (i.e., citric, sulfuric, maleic, phosphoric, acetic, L-tartaric, D-tartaric, DL-tartaric, methanesulfonic, naphthalenesulfonic, p-toluenesulfonic, lactic, L-lactic, L-ascorbic and malic acid, as well as, glycine hydrochloride) were also evaluated in regard to posaconazole solubilization.

Data set [2] is described as follows: Effect of co-solvents and non-ionic surfactants on posaconazole solubility in 100 mM Captisol. In kind it is physicochemical. The settings on record: pH 4.5, aqueous with cosolvent or surfactant or cyclodextrin, thermodynamic from solid. The protocol:
In an effort to explore further improvements to the formulation, the effects of various co-solvents and non-ionic surfactants, on the solubility of posaconazole in a 100 mM Captisol® solution, were examined. The Captisol® solutions were adjusted with HCl to pH 4.5 and an appropriate amount of co-solvent was added. An excess amount of posaconazole was added to the pH-adjusted cyclodextrin/co-solvent solution and the solutions were allowed to equilibrate for a period of three days. The contents of the vials were then centrifuged and the supernatant was assayed for posaconazole.

The nature of data set [3]: Posaconazole solubility in modified β and γ-cyclodextrins. In kind it is physicochemical. The settings on record: for solubility: pH 4.5, aqueous with cosolvent or surfactant or cyclodextrin; for fold more posaconazole solubilized than Captisol: 100 mM cyclodextrin solutions. The protocol:
The solubilities of posaconazole in each of several modified β and γ-cyclodextrins were evaluated. Solubilization of posaconazole was tested with three gamma cyclodextrins; SBE (5.2)-gamma, SBE (5.2) Et (3.9)-gamma and SBE (5.2) Et (4.9)-gamma cyclodextrin, (CyDex, Inc.).
On the other hand, some changes in β-cyclodextrin substitutions did lead to greater solubilization. Utilizing 100 mM cylodextrin solutions at pH 4.5, solubilization of posaconazole with SBE (4.6)-β, SBE (4.6)-Et (3.5)-β and SBE (4.6)-Et (8.5)-β cyclodextrins, versus Captisol®, was evaluated. The SBE (4.6)-Et (3.5)-β and SBE (4.6)-Et (8.5)-β cyclodextrins solubilized 2.6 and 6.6 fold more posaconazole (respectively) than did Captisol® (See FIG. 2). However, the extensive Captisol® safety information outweighed the potential benefits of greater solubilization and, for this reason, formulations with other sulfobutyl ether cyclodextrins were not further developed.

For data set [4] the following is noted: neutral and basic aqueous solutions; cited from earlier work.
The conditions of data set [5]: in water; cited from earlier work.

Values after ≈ are worked out from the molar mass of the structure shown. Read-outs that look alike come from different tables or passages of the source.

Regarding `CC[C@@H]([C@H](C)O)n1ncn(-c2ccc(N3CCN(c4ccc(OC[C@@H]5CO[C@@](Cn6cncn6)(c6ccc(F)cc6F)C5)cc4)CC3)cc2)c1=O` [Posaconazole, posaconazole], the solubility is 8700 µg/mL (≈ 12.4 mM) in data set [1] (pH 3, aqueous with cosolvent or surfactant or cyclodextrin, 20% Captisol, pH 3.0); 7800 µg/mL (≈ 11.1 mM) in data set [1] (pH 3.1, aqueous with cosolvent or surfactant or cyclodextrin, 20% Captisol, pH 3.1, calculated average of measured solubility at pH 3.0 and pH 3.2); 22500 µg/mL (≈ 32.1 mM) in data set [1] (pH 3.1, aqueous with cosolvent or surfactant or cyclodextrin, 40% Captisol, pH 3.1); 6900 µg/mL (≈ 9.85 mM) in data set [1] (pH 3.2, aqueous with cosolvent or surfactant or cyclodextrin, 20% Captisol, pH 3.2); 5200 µg/mL (≈ 7.42 mM) in data set [1] (pH 3.4, aqueous with cosolvent or surfactant or cyclodextrin, 20% Captisol, pH 3.4); 4000 µg/mL (≈ 5.71 mM) in data set [1] (pH 3.6, aqueous with cosolvent or surfactant or cyclodextrin, 20% Captisol, pH 3.6). Also, the solubility is 3100 µg/mL (≈ 4.42 mM) in data set [1] (pH 3.8, aqueous with cosolvent or surfactant or cyclodextrin, 20% Captisol, pH 3.8); 189 µg/mL (≈ 0.27 mM) in data set [3] (highest posaconazole solubility achieved); 1510 µg/mL (≈ 2.15 mM) in data set [3] (posaconazole solubility); “less than 1 μg/mL” in data set [4]. In addition, in data set [1] (citric, sulfuric, maleic, phosphoric, acetic, tartaric, sulfonic, lactic, ascorbic, malic acids, glycine hydrochloride, same pH), the “posaconazole solubilization with additional acidifiers versus hydrochloric acid” value is on record as “no improvement in solubility”. Also, the solubility at 3 days in data set [2] (Captisol solution with co-solvent, 100 mM Captisol pH 4.5 + 10% PEG 400) is 1280 µg/mL; in data set [2] (Captisol solution with co-solvent, 100 mM Captisol pH 4.5 + 10% PVP) it was 640 µg/mL; in data set [2] (Captisol solution with co-solvent, 100 mM Captisol pH 4.5 + 10% Propylene Glycol) it was 410 µg/mL; in data set [2] (Captisol solution with surfactant, 100 mM Captisol pH 4.5 + 0.1% Poloxamer F-68), 1630 µg/mL; in data set [2] (Captisol solution with surfactant, 100 mM Captisol pH 4.5 + 0.1% Tween 20) it was 1710 µg/mL; in data set [2] (Captisol solution with surfactant, 100 mM Captisol pH 4.5 + 0.1% Tween 80), 1740 µg/mL. The solubility at 3 days in data set [2] (Captisol solution, Control (100 mM Captisol), pH 4.5, three days equilibration) was found to be 1770 µg/mL (≈ 2.53 mM). Also, in data set [3] (pH 4.5), the “fold less solubility with gamma cyclodextrins than with Captisol” value is listed as “approximately 8 fold”.
With “Sulfobutyl ether-β-cyclodextrins, (SBE-β-CD) sodium salt [Captisol®]”, the solubility in data set [5] is given as above 800 mg/mL in water.
For the molecule SBE (4.6)-Et (8.5)-β cyclodextrin, the “fold more posaconazole solubilized than Captisol” value in data set [3] (pH 4.5) amounted to 6.6 fold.
SBE (4.6)-Et (3.5)-β cyclodextrin: the “fold more posaconazole solubilized than Captisol” value in data set [3] (pH 4.5) is given as 2.6 fold.

The values above are taken from patent US9358297B2, “Posaconazole intravenous solution formulations stabilized by substituted β-cyclodextrin” (Merck Sharp & Dohme Corp., priority 2010, dated 2016).
